≈ marks a conversion by molar mass, not a printed value. Where two headings read alike, the source gives them in different places.
What was measured:
[1] = system: Penicillin(PC)sensitive S. aureus; test: In vitro MIC, two-fold serial agar dilution in Mueller-Hinton agar, Gp-Ia strains; type: cell-based; settings: Staphylococcus aureus; GpIa, 5 strains; read-out: Geometric mean of MIC, GpIa
Protocol: (§1) The in vitro antibacterial activity of the parent cephalosporanic acids of Formula I wherein R^4 is hydrogen is shown in Table 1 in terms of geometric mean of the Minimum Inhibitory Concentrations (MIC's) which were determined by the two-fold serial agar dilution method in Mueller-Hinton agar against 25 strains of test organisms in five groups.
Gp-Ia: Penicillin(PC)sensitive S. aureus

[2] = system: CETresistant E. coli (3) and K. pneumoniae (2); test: In vitro MIC, two-fold serial agar dilution in Mueller-Hinton agar, GnIb strains; type: cell-based; settings: Escherichia coli, 5 strains, read-out: Geometric mean of MIC, GnIb
Protocol: as §1
GnIb: CETresistant E. coli (3) and K. pneumoniae (2)

[3] = system: M. morcanii (1), E. cloacae (2) and S. marcescens (2); test: In vitro MIC, two-fold serial agar dilution in Mueller-Hinton agar, GnII strains; type: cell-based; settings: Enterobacter cloacae, read-out: Geometric mean of MIC, GnII
Protocol: as §1
GnII: M. morcanii (1), E. cloacae (2) and S. marcescens (2)

[4] = system: Cephalothin(CET)sensitive E. coli (2 strains), K. pneumoniae (1) an P. mirabilis (2); test: In vitro MIC, two-fold serial agar dilution in Mueller-Hinton agar, GnIa strains; type: cell-based; settings: 5 strains, read-out: Geometric mean of MIC, GnIa
Protocol: as §1
GnIa: Cephalothin(CET)sensitive E. coli (2 strains), K. pneumoniae (1) an […]

[5] = Mouse blood levels after oral administration (Table 2); type: in vivo
PCresistant S. aureus = test: In vitro MIC, two-fold serial agar dilution in Mueller-Hinton agar, GpIb strains; type: cell-based; settings: Staphylococcus aureus, 5 strains, read-out: Geometric mean of MIC, GpIb
Protocol: as §1
GpIb: PCresistant S. aureus

E. coli Juhl = test: Evaluation in vivo (mouse), oral PD50 against E. coli Juhl; settings: Escherichia coli
Source text: (§2) Tables 4 and 5 show the in vivo activity of pro-drug esters 88-92 including the bioavailability thereof as reflected by blood levels.

[6] = Bioavailability in mouse as reflected by blood levels (Table 5); type: in vivo; settings: oral, Table 5 (definition given as drawing 18)
Source text: as §2

S. aureus Smith = test: Evaluation in vivo (mouse), oral PD50 against S. aureus Smith; settings: Staphylococcus aureus
Source text: as §2

[7] = Evaluation in vivo (mouse), blood concentration (Table 4); settings: po, treated orally, single 100 mg/kg dose
Protocol: as §2
*treated orally, single 100 mg/kg. dose

[8] = mouse blood, 20 mg/kg, read-out: AUC
[9] = mouse blood, 20 mg/kg, read-out: T 1/2 (converted)
[10] = mouse blood, 100 mg/kg, read-out: AUC
[11] = mouse blood, 100 mg/kg, read-out: Cmax
[12] = mouse blood, 100 mg/kg, read-out: T 1/2 (converted)

Row | SMILES | MIC [1] [µg/mL] | MIC [2] [µg/mL] | MIC [3] [µg/mL] | MIC [4] [µg/mL] | MIC (PCresistant S. aureus) [µg/mL] | ED50 (E. coli Juhl; Table 5) [mg/kg] | bioavailability [6] [%] | ED50 (S. aureus Smith; Table 5) [mg/kg] | further results
1 | N[C@@H](C(=O)N[C@@H]1C(=O)N2C(C(=O)O)=C(Cl)CS[C@H]12)c1ccccc1 [Cefaclor, reference compound] | 0.7 (≈ 1.9 µM) | 11 (≈ 29.9 µM) | > 100 | 0.92 (≈ 2.5 µM) | 4.7 (≈ 12.8 µM) | – | – | – | AUC ([5]; mouse, in vivo, 20 mg/kg): 8900 ng·h/mL; half-life ([5]; mouse, in vivo, 20 mg/kg): 0.91 h; AUC ([5]; mouse, in vivo, 100 mg/kg): 35000 ng·h/mL; half-life ([5]; mouse, in vivo, 100 mg/kg): 1.2 h
2 | CC1=C(C(=O)O)N2C(=O)[C@@H](NC(=O)[C@H](N)c3ccc(O)cc3)[C@H]2SC1 [Cefadroxil, reference compound] | 1.4 (≈ 3.85 µM) | 17 (≈ 46.8 µM) | > 100 | 8.3 (≈ 22.8 µM) | 3.6 (≈ 9.91 µM) | – | – | – | AUC [5, 8]: 16000 ng·h/mL; half-life [5, 9]: 1.4 h; AUC [5, 10]: 69000 ng·h/mL; Cmax [5, 11]: 57000 ng/mL; half-life [5, 12]: 1.6 h
3 | C=CC1=C(C(=O)O)N2C(=O)[C@@H](NC(=O)/C(=N\OCC(=O)O)c3csc(N)n3)[C@H]2SC1 [Cefixime, cefixime] | 4.7 (≈ 10.4 µM) | 3.1 (≈ 6.84 µM) | 3.2 (≈ 7.06 µM) | 0.016 (≈ 0.0353 µM) | 12.5 (≈ 27.6 µM) | – | – | – | AUC [5, 8]: 25000 ng·h/mL; Cmax ([5]; mouse blood, 20 mg/kg, read-out: Cmax): 10000 ng/mL; half-life [5, 9]: 1.5 h; AUC [5, 10]: 75000 ng·h/mL; Cmax [5, 11]: 28000 ng/mL; half-life [5, 12]: 1.6 h
4 | C/C=C\C1=C(C(=O)OC(C)OC(C)=O)N2C(=O)[C@@H](NC(=O)/C(=N\O)c3csc(N)n3)[C@H]2SC1 (stereo partly drawn) [Compound 30, 1-acetoxyethyl 7β-[(Z)-2-(2-aminothiazol-4-yl)-2-(hydroxyimino)acetamido]-3-[(Z)-prop-1-en-1-yl]-3-cephem-4-carboxylate] | – | – | – | – | – | 1.1 | 76 | 2 | AUC ([5]; mouse, in vivo, 20 mg/kg): 16000 ng·h/mL; Cmax ([5]; mouse, in vivo, 20 mg/kg): 9900 ng/mL; half-life ([5]; mouse, in vivo, 20 mg/kg): 1 h; AUC ([5]; mouse, in vivo, 100 mg/kg): 61000 ng·h/mL; Cmax ([5]; mouse, in vivo, 100 mg/kg): 36000 ng/mL; half-life ([5]; mouse, in vivo, 100 mg/kg): 1.3 h
5 | C/C=C/C1=C(C(=O)O)N2C(=O)[C@@H](NC(=O)/C(=N\O)c3csc(N)n3)[C@H]2SC1 [Compound 33, 7β-[(Z)-2-(2-aminothiazol-4-yl)-2-(hydroxyimino)acetamido]-3-[(E)-prop-1-en-1-yl]-3-cephem-4-carboxylic acid] | 0.23 (≈ 0.562 µM) | 1.4 (≈ 3.42 µM) | 22 (≈ 53.7 µM) | 0.46 (≈ 1.12 µM) | 0.61 (≈ 1.49 µM) | – | – | – | –
6 | CC(=O)OC/C=C\C1=C(C(=O)O)N2C(=O)[C@@H](NC(=O)/C(=N\O)c3csc(N)n3)[C@H]2SC1 [Compound 37, 7β-[(Z)-2-(2-aminothiazol-4-yl)-2-(hydroxyimino)acetamido]-3-[(Z)-3-acetoxyprop-1-en-1-yl]-3-cephem-4-carboxylic acid] | 0.17 (≈ 0.364 µM) | 0.1 (≈ 0.214 µM) | 1.1 (≈ 2.35 µM) | 0.025 (≈ 0.0535 µM) | 0.4 (≈ 0.856 µM) | – | – | – | –
7 | C/C=C\C1=C(C(=O)O)N2C(=O)[C@@H](NC(=O)/C(=N\OC(C)=O)c3csc(N)n3)[C@H]2SC1 [Compound 53, 7β-[(Z)-2-(2-aminothiazol-4-yl)-2-(acetoxyimino)acetamido]-3-[(Z)-prop-1-en-1-yl]-3-cephem-4-carboxylic acid] | 0.17 (≈ 0.377 µM) | 0.26 (≈ 0.576 µM) | 3.6 (≈ 7.97 µM) | 0.057 (≈ 0.126 µM) | 0.4 (≈ 0.886 µM) | – | – | – | –
8 | C/C=C\C1=C(C(=O)OC(C)OC(C)=O)N2C(=O)[C@@H](NC(=O)/C(=N\OC(C)=O)c3csc(N)n3)[C@H]2SC1 (stereo partly drawn) [Compound 55, 1-acetoxyethyl 7β-[(Z)-2-(2-aminothiazol-4-yl)-2-(acetoxyimino)acetamido]-3-[(Z)-prop-1-en-1-yl]-3-cephem-4-carboxylate] | – | – | – | – | – | – | – | – | AUC ([5]; mouse, in vivo, 20 mg/kg): 9400 ng·h/mL; Cmax ([5]; mouse, in vivo, 20 mg/kg): 7600 ng/mL; half-life ([5]; mouse, in vivo, 20 mg/kg): 0.8 h; AUC ([5]; mouse, in vivo, 100 mg/kg): 40000 ng·h/mL; Cmax ([5]; mouse, in vivo, 100 mg/kg): 27000 ng/mL; half-life ([5]; mouse, in vivo, 100 mg/kg): 0.8 h
9 | C/C=C\C1=C(C(=O)OCc2oc(=O)oc2C)N2C(=O)[C@@H](NC(=O)/C(=N\O)c3csc(N)n3)[C@H]2SC1 [Compound 88, (5-methyl-2-oxo-1,3-dioxolen-4-yl)methyl 7β-[(Z)-2-(2-aminothiazol-4-yl)-2-(hydroxyimino)-acetamido]-3-[(Z)-prop-1-en-1-yl]-3-cephem-4-carboxylate] | – | – | – | – | – | – | – | – | ED50 (E. coli Juhl; Table 4): 2.7 mg/kg; AUC [7]: 44000 ng·h/mL; Cmax [7]: 16000 ng/mL; ED50 (S. aureus Smith; Table 4): 1.1 mg/kg
10 | C/C=C\C1=C(C(=O)OC(C)OC(=O)OCC)N2C(=O)[C@@H](NC(=O)/C(=N\O)c3csc(N)n3)[C@H]2SC1 (stereo partly drawn) [Compound 89, 1-(ethoxycarbonyloxy)ethyl 7β-[(Z)-2-(2-aminothiazol-4-yl)-2-(hydroxyimino)-acetamido]-3-[(Z)-prop-1-en-1-yl]-3-cephem-4-carboxylate] | – | – | – | – | – | – | – | – | ED50 (E. coli Juhl; Table 4): 0.67 mg/kg; AUC [7]: 74000 ng·h/mL; Cmax [7]: 32000 ng/mL; ED50 (S. aureus Smith; Table 4): 0.77 mg/kg
11 | C/C=C\C1=C(C(=O)OC(C)OC(=O)OC2CCCCC2)N2C(=O)C(NC(=O)/C(=N\O)c3csc(N)n3)[C@H]2SC1 (some centres unmarked) [Compound 90, 1-(cyclohexyloxycarbonyloxy)ethyl 7-[(Z)-2-(2-aminothiazol-4-yl)-2-(hydroxyimino)acetamido]-3-[(Z)-1-propenyl]-3-cephem-4-carboxylate] | – | – | – | – | – | 1.5 | 78 | 3.2 | –
12 | C/C=C\C1=C(C(=O)OC(C)OC(=O)C(C)(C)C)N2C(=O)C(NC(=O)/C(=N\O)c3csc(N)n3)[C@H]2SC1 (some centres unmarked) [Compound 91, 1-(pivaloyloxy)ethyl 7-[(Z)-2-(2-aminothiazol-4-yl)-2-(hydroxyimino)acetamido]-3-[(Z)-1-propenyl]-3-cephem-4-carboxylate] | – | – | – | – | – | 3.5 | 60 | 2 | –
13 | C/C=C\C1=C(C(=O)OC(C)OC(=O)CC2CCCCC2)N2C(=O)C(NC(=O)/C(=N\O)c3csc(N)n3)[C@H]2SC1 (some centres unmarked) [Compound 92, 1-(cyclohexylacetoxy)ethyl 7-[(Z)-2-(2-aminothiazol-4-yl)-2-(hydroxyimino)acetamido]-3-[(Z)-1-propenyl]-3-cephem-4-carboxylate] | – | – | – | – | – | 1.4 | 87 | 2.9 | –

— patent publication US4874856A, “3-(substituted)propenyl-7-(aminothiazolylacetamido) ceph-3-em-4-carboxylic acids and esters thereof” (Bristol-Myers Company, priority 1987, dated 1989)
